Measured values from patent US7597904B2, “Metalloproteinase inhibitory agent” (Nestec S.A., priority 2004, dated 2009).
Values belong to the compound of their own block, whether it stands above or below them. Residues, ends and D or L forms follow the SMILES beside them.

Assays:
ACE = target: T1, ACE (Homo sapiens, UniProt P12821); test: Angiotensin-converting-enzyme inhibitory test, FAPGG substrate; type: biochemical; details: substrate N-[3-2(furyl)acryloyl]L-phenylalanylglycylglycine; read-out: IC50 for the inhibition of ACE
T1 construct: purchased
Method: Angiotensin-Converting-Enzyme Inhibitory Test
This procedure is a rapid spectrophotometric method utilizing the synthetic tripeptide substrate N-[3-(2-furyl)acryloil]-L-phenylalanylglycylglycine (FAPGG). Km-value: 0.3 mM.
FAPGG was hydrolysed to furylacryloylphenylalanine (FAP) and glycylgylcine.
The ACE reagent and the ACE Calibrator were reconstituted according to the manufacturer's recommendations.
The assay was performed in quartz cuvets. 0.05 ml ACE Reagent Solution, 0.05 ml casein hydrolysate and 0.05 ml ACE calibrator were mixed and incubated at 37° C. for 10 minutes.
The absorbance at 340 nm was measured as a function of time.
The ACE activity in the sample was determined by comparing the sample reaction rate to that obtained with the ACE calibrator. The results are expressed as percentage with respect to the control.

MMP-7 = target: T2, MMP-7 (Homo sapiens, UniProt P09237); test: Matrix metalloproteinase inhibitory test, DQ-gelatin substrate; type: biochemical; details: flourescein conjugated gelatin; read-out: IC50 for the inhibition of MMP-7
T2 sequence (P09237 95-267): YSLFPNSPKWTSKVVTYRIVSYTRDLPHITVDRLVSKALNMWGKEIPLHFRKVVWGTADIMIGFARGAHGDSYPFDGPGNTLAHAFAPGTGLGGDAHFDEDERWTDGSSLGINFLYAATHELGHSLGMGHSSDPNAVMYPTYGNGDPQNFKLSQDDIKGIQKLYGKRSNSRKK
Method: (§1) Matrix Metalloproteinase Inhibitory Test
(§2) The assay was performed in microtiter plates. In each single well 1 μl enzyme, the inhibitor at the desired concentration and finally 5 μl substrate were added to PBS buffer (pH 7.0-7.5), final volume: 200 μl. The reaction mixture was incubated at 37° C. for 2 hours. The increase in fluorescence was continuously recorded, exciting at 485 nm and reading the emission at 530 nm, with a gain of 40.
(§3) Inhibitors:— o-phenantroline: 9.9 mg in 25 μl DMF (dimethylformamide→add 1 μl (final concentration: 10 mM) • synthetic inhibitors at different concentrations
(§4) Substrate: DQ-gelatin: 1 mg/ml in PBS→add 5 μl to the reaction (reaction volume: 200 μl) (final concentration: […])
(§5) Enzymes: • MMP-7: stock solution: 1 U/μl • MMP-2: stock solution: 0.05 μg/μl • MMP-9: stock solution: 0.05 μg/μl Results & Discussion Generation of the Peptide Library with Lb. helveticus CNCM I-2864 . . .

MMP-9 = MMP-9 (Homo sapiens, UniProt P14780); test: as above; type: biochemical; details: flourescein conjugated gelatin; read-out: IC50 for the inhibition of MMP-9
Method: as §1, §2, §3, §4, §5

MMP-2 = target: T3, MMP-2 (Homo sapiens, UniProt P08253); test: as above; type: biochemical; details: flourescein conjugated gelatin; read-out: IC50 for the inhibition of MMP-2
T3 sequence (P08253 110-660): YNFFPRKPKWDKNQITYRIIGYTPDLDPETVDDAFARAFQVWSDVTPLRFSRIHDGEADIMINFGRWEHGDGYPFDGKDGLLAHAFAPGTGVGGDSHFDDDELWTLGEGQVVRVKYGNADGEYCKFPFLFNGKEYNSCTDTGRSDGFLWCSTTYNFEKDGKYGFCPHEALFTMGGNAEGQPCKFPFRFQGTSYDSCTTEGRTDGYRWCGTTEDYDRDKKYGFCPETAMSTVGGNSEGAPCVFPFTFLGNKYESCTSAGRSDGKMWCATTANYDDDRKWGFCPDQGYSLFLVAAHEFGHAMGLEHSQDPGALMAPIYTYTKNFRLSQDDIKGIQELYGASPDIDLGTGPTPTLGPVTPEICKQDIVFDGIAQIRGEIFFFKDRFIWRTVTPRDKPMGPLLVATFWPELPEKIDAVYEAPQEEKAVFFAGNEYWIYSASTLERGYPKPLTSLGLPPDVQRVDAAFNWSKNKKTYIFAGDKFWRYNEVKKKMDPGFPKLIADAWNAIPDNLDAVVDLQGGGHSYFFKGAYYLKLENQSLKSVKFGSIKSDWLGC
Method: as §1, §2, §3, §4, §5

HT-29 cells = test: Proliferation of HT-29 cells with synthetic peptides (percentage of counts); type: cell-based, human; details: for antiproliferative activity of synthetic peptides (in words): HT-29 cells
Method: Undifferentiated cells (passages 45-78) were maintained in glucose-containing DMEM supplemented with 10% FCS at 37° C. in a 5% CO2/air incubator. Culture medium was changed every two days until the cell monolayers reached 50% confluence. For stimulation assays, HT-29 cells were plated at 1.2*10^4 cells/well in 96-well flat-bottom plates. After incubation for 4 days, the amount of cells present in the wells before incubation with the samples was assessed adding neutral red solution in 4 wells and incubating the plate for 45 min. The HT-29 cells were then washed twice with serum-free media (inclusive the wells with neutral red solution). The wells colored with neutral red remained from now on free of any media.
Synthetic peptides that were tested on HT-29 cell line confirmed their antiproliferative potential.
The same experiment was performed with a shorter version of the former mentioned peptide: ENLLRFFVAPFPEVFG (SEQ ID NO:22) (αS1 33-48).

MMPs = details: background statement; cited from earlier work
MMP = test: Matrix metalloproteinase inhibitory test, positive control; type: biochemical; details: 10 mM concentration; data not shown
Method: as §1, §2, §3

Chain of MMP-9 (P14780 94-707, species assumed): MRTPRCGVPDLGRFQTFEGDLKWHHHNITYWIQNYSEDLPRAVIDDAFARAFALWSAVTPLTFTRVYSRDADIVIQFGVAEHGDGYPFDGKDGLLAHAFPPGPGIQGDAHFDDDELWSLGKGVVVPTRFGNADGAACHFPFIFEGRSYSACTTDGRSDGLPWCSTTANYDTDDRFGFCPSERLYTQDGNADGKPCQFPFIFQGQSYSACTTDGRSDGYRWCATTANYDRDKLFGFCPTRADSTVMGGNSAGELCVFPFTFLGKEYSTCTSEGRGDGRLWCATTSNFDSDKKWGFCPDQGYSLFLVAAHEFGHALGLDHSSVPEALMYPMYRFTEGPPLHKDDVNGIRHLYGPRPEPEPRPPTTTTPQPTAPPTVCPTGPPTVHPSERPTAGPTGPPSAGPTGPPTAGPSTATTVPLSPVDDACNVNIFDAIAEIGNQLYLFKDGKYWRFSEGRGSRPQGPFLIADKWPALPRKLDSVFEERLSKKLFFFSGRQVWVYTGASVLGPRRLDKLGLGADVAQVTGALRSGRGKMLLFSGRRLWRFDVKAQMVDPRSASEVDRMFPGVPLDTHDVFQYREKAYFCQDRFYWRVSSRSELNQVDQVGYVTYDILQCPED
T1 sequence (P12821 30-1306, species assumed): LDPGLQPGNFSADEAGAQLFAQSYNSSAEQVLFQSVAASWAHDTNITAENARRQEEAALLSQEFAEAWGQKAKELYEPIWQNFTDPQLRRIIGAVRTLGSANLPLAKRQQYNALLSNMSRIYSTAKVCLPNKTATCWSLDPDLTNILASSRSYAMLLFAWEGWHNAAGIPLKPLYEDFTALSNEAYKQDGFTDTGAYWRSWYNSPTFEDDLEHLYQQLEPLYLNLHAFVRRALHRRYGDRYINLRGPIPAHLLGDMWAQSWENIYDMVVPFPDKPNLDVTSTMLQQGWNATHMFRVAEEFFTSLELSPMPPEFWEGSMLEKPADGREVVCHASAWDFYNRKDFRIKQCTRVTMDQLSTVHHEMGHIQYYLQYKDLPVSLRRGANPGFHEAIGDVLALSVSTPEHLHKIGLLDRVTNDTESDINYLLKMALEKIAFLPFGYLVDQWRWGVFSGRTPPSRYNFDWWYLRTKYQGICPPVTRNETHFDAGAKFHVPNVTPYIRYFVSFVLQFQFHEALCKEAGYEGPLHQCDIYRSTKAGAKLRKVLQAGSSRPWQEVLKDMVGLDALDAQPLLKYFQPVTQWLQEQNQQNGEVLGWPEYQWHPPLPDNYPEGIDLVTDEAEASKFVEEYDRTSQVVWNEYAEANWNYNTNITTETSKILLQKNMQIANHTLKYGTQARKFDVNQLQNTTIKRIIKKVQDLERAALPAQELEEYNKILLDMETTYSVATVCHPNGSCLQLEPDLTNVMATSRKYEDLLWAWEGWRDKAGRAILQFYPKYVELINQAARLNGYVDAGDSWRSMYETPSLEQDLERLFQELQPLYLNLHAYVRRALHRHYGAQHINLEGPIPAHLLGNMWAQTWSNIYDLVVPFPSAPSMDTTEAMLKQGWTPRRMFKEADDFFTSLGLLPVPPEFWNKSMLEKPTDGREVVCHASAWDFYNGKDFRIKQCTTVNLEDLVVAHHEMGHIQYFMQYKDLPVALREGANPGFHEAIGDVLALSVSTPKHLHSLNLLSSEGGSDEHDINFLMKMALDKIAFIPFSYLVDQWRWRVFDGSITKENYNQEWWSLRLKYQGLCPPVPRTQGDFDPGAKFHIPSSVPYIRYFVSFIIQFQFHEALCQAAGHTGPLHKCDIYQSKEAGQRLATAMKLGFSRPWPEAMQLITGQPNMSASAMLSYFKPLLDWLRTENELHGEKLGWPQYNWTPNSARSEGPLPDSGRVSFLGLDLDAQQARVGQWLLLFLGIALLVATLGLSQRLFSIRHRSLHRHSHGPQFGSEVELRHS

Compound: CC(C)C[C@H](NC(=O)[C@H](CC(C)C)NC(=O)[C@@H]1CCCN1C(=O)[C@H](CC(C)C)NC(=O)[C@@H]1CCCN1C(=O)[C@H](CC(C)C)NC(=O)[C@H](Cc1c[nH]cn1)NC(=O)[C@H](CC(C)C)NC(=O)[C@H](CC(N)=O)NC(=O)[C@@H](N)CCC(=O)O)C(=O)O [ENLHLPLPLL] (H-ENLHLPLPLL-OH; N-terminus and C-terminus assumed)
IC50 (ACE): 250 µM
IC50 (MMP-7): 275 µM
IC50 (MMP-9): 300 µM
IC50 (MMP-2): 200 µM

Compound: CC(C)C[C@H](NC(=O)[C@H](CC(C)C)NC(=O)[C@H](CC(N)=O)NC(=O)[C@@H](N)CCC(=O)O)C(=O)N[C@@H](CCCNC(=N)N)C(=O)N[C@@H](Cc1ccccc1)C(=O)N[C@@H](Cc1ccccc1)C(=O)N[C@H](C(=O)N[C@@H](C)C(=O)N1CCC[C@H]1C(=O)N[C@@H](Cc1ccccc1)C(=O)N1CCC[C@H]1C(=O)N[C@@H](CCC(=O)O)C(=O)N[C@H](C(=O)N[C@@H](Cc1ccccc1)C(=O)NCC(=O)O)C(C)C)C(C)C [ENLLRFFVAPFPEVFG] (H-ENLLRFFVAPFPEVFG-OH; N-terminus and C-terminus assumed)
IC50 (ACE): 250 µM
antiproliferative activity of synthetic peptides (in words) (HT-29 cells): antiproliferative pattern similar to the one observed for LNENLLRFFVAPFPEVFG
IC50 (MMP-7): 1000 µM
IC50 (MMP-9): 150 µM
IC50 (MMP-2): 425 µM

Compound: CC(C)C[C@H](NC(=O)[C@H](CC(C)C)NC(=O)[C@H](CC(N)=O)NC(=O)[C@H](CCC(=O)O)NC(=O)[C@@H](N)CC(N)=O)C(=O)N[C@@H](CCCNC(=N)N)C(=O)N[C@@H](Cc1ccccc1)C(=O)N[C@@H](Cc1ccccc1)C(=O)N[C@H](C(=O)N[C@@H](C)C(=O)N1CCC[C@H]1C(=O)N[C@@H](Cc1ccccc1)C(=O)N1CCC[C@H]1C(=O)N[C@@H](CCC(=O)O)C(=O)N[C@H](C(=O)N[C@@H](Cc1ccccc1)C(=O)NCC(=O)O)C(C)C)C(C)C [NENLLRFFVAPFPEVFG] (H-NENLLRFFVAPFPEVFG-OH; N-terminus and C-terminus assumed)
IC50 (ACE): 55 µM
IC50 (MMP-7): 850 µM
IC50 (MMP-9): 50 µM
IC50 (MMP-2): 275 µM

Compound: CC(C)C[C@H](NC(=O)[C@H](CC(C)C)NC(=O)[C@@H]1CCCN1C(=O)[C@H](CC(C)C)NC(=O)[C@@H]1CCCN1C(=O)[C@H](CC(C)C)NC(=O)[C@H](Cc1c[nH]cn1)NC(=O)[C@H](CC(C)C)NC(=O)[C@@H](N)CC(N)=O)C(=O)O [NLHLPLPLL] (H-NLHLPLPLL-OH; N-terminus and C-terminus assumed)
IC50 (ACE): 15 µM
IC50 (MMP-7): 1200 µM
IC50 (MMP-9): 600 µM
IC50 (MMP-2): 450 µM

Compound: CNC(=O)[C@@H](NC(=O)[C@H](CC(C)C)[C@H](O)C(=O)NO)C(C)(C)C [marimastat]
IC50 (MMPs): micromolar range

More lines, main results first:

IC50 (ACE): 650 µM
IC50 (MMP-7): 300 µM
IC50 (MMP-9): 400 µM
IC50 (MMP-2): 500 µM
Compound: CC(C)[C@H](NC(=O)[C@H](CCC(=O)O)NC(=O)[C@@H]1CCCN1C(=O)[C@H](Cc1ccccc1)NC(=O)[C@@H]1CCCN1C(=O)[C@H](C)NC(=O)[C@@H](NC(=O)[C@@H](N)Cc1ccccc1)C(C)C)C(=O)N[C@@H](Cc1ccccc1)C(=O)NCC(=O)O [FVAPFPEVFG] (H-FVAPFPEVFG-OH; N-terminus and C-terminus assumed)

IC50 (ACE): 280 µM
IC50 (MMP-7): 300 µM
IC50 (MMP-9): 150 µM
IC50 (MMP-2): 250 µM
Compound: CC(C)C[C@H](NC(=O)[C@H](CC(C)C)NC(=O)[C@H](CC(N)=O)NC(=O)[C@H](CCC(=O)O)NC(=O)[C@H](CC(N)=O)NC(=O)[C@@H](N)CC(C)C)C(=O)N[C@@H](CCCNC(=N)N)C(=O)N[C@@H](Cc1ccccc1)C(=O)N[C@@H](Cc1ccccc1)C(=O)N[C@H](C(=O)N[C@@H](C)C(=O)N1CCC[C@H]1C(=O)N[C@@H](Cc1ccccc1)C(=O)N1CCC[C@H]1C(=O)N[C@@H](CCC(=O)O)C(=O)N[C@H](C(=O)N[C@@H](Cc1ccccc1)C(=O)NCC(=O)O)C(C)C)C(C)C [LNENLLRFFVAPFPEVFG] (H-LNENLLRFFVAPFPEVFG-OH; N-terminus and C-terminus assumed)
antiproliferative activity of synthetic peptides (in words) (HT-29 cells): strongly inhibited proliferation
% prolif (percentage of counts with respect to the control) (HT-29 cells; peptide concentration 2 μM): 56%
% prolif (percentage of counts with respect to the control) (HT-29 cells; peptide concentration 4 μM): 44%
% prolif (percentage of counts with respect to the control) (HT-29 cells; peptide concentration 8 μM): 160%
% prolif (percentage of counts with respect to the control) (HT-29 cells; peptide concentration 17 μM): 114%
% prolif (percentage of counts with respect to the control) (HT-29 cells; peptide concentration 33 μM): 131%
% prolif (percentage of counts with respect to the control) (HT-29 cells; peptide concentration 66 μM): 119%
% prolif (percentage of counts with respect to the control) (HT-29 cells; peptide concentration 133 μM): 135%

IC50 (ACE): 175 µM
IC50 (MMP-7): 250 µM
IC50 (MMP-9): 300 µM
IC50 (MMP-2): 150 µM
Compound: CC(C)C[C@H](NC(=O)[C@H](CC(C)C)NC(=O)[C@@H]1CCCN1C(=O)[C@H](CC(C)C)NC(=O)[C@@H]1CCCN1C(=O)[C@H](CC(C)C)NC(=O)[C@H](Cc1c[nH]cn1)NC(=O)[C@H](CC(C)C)NC(=O)[C@H](CC(N)=O)NC(=O)[C@H](CCC(=O)O)NC(=O)[C@@H](N)C(C)C)C(=O)O [VENLHLPLPLL] (H-VENLHLPLPLL-OH; N-terminus and C-terminus assumed)

MMP inhibition (in words) (MMP): complete MMP inhibition
Compound: c1cnc2c(c1)ccc1cccnc12 [o-phenantroline]
